In ChEMBL document CHEMBL5723582, “Data for DCP probe T-10430” (2024):

Key:
[1] = target: Type-1 angiotensin II receptor (Homo sapiens, UniProt P30556); test: IP-One assay (AGTR1), antagonist mode at up to 50 µM ( vs. 10 nM Val5-Angiotensin II); format: functional; set-up: compound concentration < 50 uM
[2] = target: Pituitary adenylate cyclase-activating polypeptide type I receptor (Homo sapiens) (UniProt P41586); test: RLU of ADCYAP1R1 at 1.0 µM in the […] PRESTO-Tango GPCRome screen; conditions: Compound concentration 1.0 uM
[3] = target: Alpha-1B adrenergic receptor (Homo sapiens) (UniProt P35368); test: RLU of ADRA1B at 1.0 µM in the […] PRESTO-Tango GPCRome screen; conditions: Compound concentration 1.0 uM
[4] = target: Vasopressin V1b receptor (Homo sapiens) (UniProt P47901); test: RLU of AVPR1B at 1.0 µM in the […] PRESTO-Tango GPCRome screen; conditions: Compound concentration 1.0 uM
[5] = target: Vasopressin V2 receptor (Homo sapiens) (UniProt P30518); test: RLU of AVPR2 at 1.0 µM in the […] PRESTO-Tango GPCRome screen; conditions: Compound concentration 1.0 uM
[6] = target: C3a anaphylatoxin chemotactic receptor (Homo sapiens) (UniProt Q16581); test: RLU of C3AR1 at 1.0 µM in the […] PRESTO-Tango GPCRome screen; conditions: Compound concentration 1.0 uM
[7] = target: Calcitonin receptor (Homo sapiens) (UniProt P30988); test: RLU of CALCRb at 1.0 µM in the […] PRESTO-Tango GPCRome screen; conditions: Compound concentration 1.0 uM
[8] = target: C-C chemokine receptor type 2 (Homo sapiens) (UniProt P41597); test: RLU of CCR2 at 1.0 µM in the […] PRESTO-Tango GPCRome screen; conditions: Compound concentration 1.0 uM
[9] = target: C-C chemokine receptor type 8 (Homo sapiens) (UniProt P51685); test: RLU of CCR8 at 1.0 µM in the […] PRESTO-Tango GPCRome screen; conditions: Compound concentration 1.0 uM
[10] = target: Muscarinic acetylcholine receptor M1 (Homo sapiens) (UniProt P11229); test: RLU of CHRM1 at 1.0 µM in the […] PRESTO-Tango GPCRome screen; conditions: Compound concentration 1.0 uM
[11] = target: Cannabinoid receptor 1 (Homo sapiens) (UniProt P21554); test: RLU of CNR1 at 1.0 µM in the […] PRESTO-Tango GPCRome screen; conditions: Compound concentration 1.0 uM
[12] = target: Corticotropin-releasing factor receptor 1 (Homo sapiens) (UniProt P34998); test: RLU of CRHR1 at 1.0 µM in the […] PRESTO-Tango GPCRome screen; conditions: Compound concentration 1.0 uM
[13] = target: Corticotropin-releasing factor receptor 2 (Homo sapiens) (UniProt Q13324); test: RLU of CRHR2 at 1.0 µM in the […] PRESTO-Tango GPCRome screen; conditions: Compound concentration 1.0 uM
[14] = target: Endothelin-1 receptor (Homo sapiens) (UniProt P25101); test: RLU of EDNRA at 1.0 µM in the […] PRESTO-Tango GPCRome screen; conditions: Compound concentration 1.0 uM
[15] = target: Follicle-stimulating hormone receptor (Homo sapiens) (UniProt P23945); test: RLU of FSHR at 1.0 µM in the […] PRESTO-Tango GPCRome screen; conditions: Compound concentration 1.0 uM
[16] = target: Adhesion G protein-coupled receptor F5 (Homo sapiens) (UniProt Q8IZF2); test: RLU of GPR116 at 1.0 µM in the […] PRESTO-Tango GPCRome screen; conditions: Compound concentration 1.0 uM
[17] = target: Probable G-protein coupled receptor 148 (Homo sapiens) (UniProt Q8TDV2); test: RLU of GPR148 at 1.0 µM in the […] PRESTO-Tango GPCRome screen; conditions: Compound concentration 1.0 uM
[18] = target: G-protein coupled receptor 15 (Homo sapiens) (UniProt P49685); test: RLU of GPR15 at 1.0 µM in the […] PRESTO-Tango GPCRome screen; conditions: Compound concentration 1.0 uM
[19] = target: Probable G-protein coupled receptor 162 (Homo sapiens) (UniProt Q16538); test: RLU of GPR162 at 1.0 µM in the […] PRESTO-Tango GPCRome screen; conditions: Compound concentration 1.0 uM
[20] = target: G-protein coupled receptor 171 (Homo sapiens) (UniProt O14626); test: RLU of GPR171 at 1.0 µM in the […] PRESTO-Tango GPCRome screen; conditions: Compound concentration 1.0 uM
[21] = target: G-protein coupled receptor 183 (Homo sapiens) (UniProt P32249); test: RLU of GPR183 at 1.0 µM in the […] PRESTO-Tango GPCRome screen; conditions: Compound concentration 1.0 uM
[22] = target: G-protein coupled receptor 22 (Homo sapiens) (UniProt Q99680); test: RLU of GPR22 at 1.0 µM in the […] PRESTO-Tango GPCRome screen; conditions: Compound concentration 1.0 uM
[23] = target: Melatonin-related receptor (Homo sapiens) (UniProt Q13585); test: RLU of GPR50 at 1.0 µM in the […] PRESTO-Tango GPCRome screen; conditions: Compound concentration 1.0 uM
[24] = target: G-protein coupled receptor 61 (Homo sapiens) (UniProt Q9BZJ8); test: RLU of GPR61 at 1.0 µM in the […] PRESTO-Tango GPCRome screen; conditions: Compound concentration 1.0 uM
[25] = target: Adhesion G protein-coupled receptor G3 (Homo sapiens) (UniProt Q86Y34); test: RLU of GPR97 at 1.0 µM in the […] PRESTO-Tango GPCRome screen; conditions: Compound concentration 1.0 uM
[26] = target: G-protein coupled receptor family C group 6 member A (Homo sapiens) (UniProt Q5T6X5); test: RLU of GPRC6A at 1.0 µM in the […] PRESTO-Tango GPCRome screen; conditions: Compound concentration 1.0 uM
Opsin-3 (Homo sapiens) = Opsin-3 (Homo sapiens) (UniProt Q9H1Y3); test: RLU of OPN3 at 1.0 µM in the […] PRESTO-Tango GPCRome screen; conditions: Compound concentration 1.0 uM
[27] = target: Kappa-type opioid receptor (Homo sapiens) (UniProt P41145); test: RLU of OPRK1 at 1.0 µM in the […] PRESTO-Tango GPCRome screen; conditions: Compound concentration 1.0 uM
[28] = target: Nociceptin receptor (Homo sapiens) (UniProt P41146); test: RLU of OPRL1 at 1.0 µM in the […] PRESTO-Tango GPCRome screen; conditions: Compound concentration 1.0 uM
[29] = target: P2Y purinoceptor 6 (Homo sapiens) (UniProt Q15077); test: RLU of P2RY6 at 1.0 µM in the […] PRESTO-Tango GPCRome screen; conditions: Compound concentration 1.0 uM
[30] = target: Prostacyclin receptor (Homo sapiens) (UniProt P43119); test: RLU of PTGIR at 1.0 µM in the […] PRESTO-Tango GPCRome screen; conditions: Compound concentration 1.0 uM
[31] = target: Sphingosine 1-phosphate receptor 4 (Homo sapiens) (UniProt O95977); test: RLU of S1PR4 at 1.0 µM in the […] PRESTO-Tango GPCRome screen; conditions: Compound concentration 1.0 uM
[32] = target: Somatostatin receptor type 5 (Homo sapiens) (UniProt P35346); test: RLU of SSTR5 at 1.0 µM in the […] PRESTO-Tango GPCRome screen; conditions: Compound concentration 1.0 uM
[33] = target: Trace amine-associated receptor 8 (Homo sapiens) (UniProt Q969N4); test: RLU of TAAR8 at 1.0 µM in the […] PRESTO-Tango GPCRome screen; conditions: Compound concentration 1.0 uM
[34] = target: Urotensin-2 receptor (Homo sapiens) (UniProt Q9UKP6); test: RLU of UTS2R at 1.0 µM in the […] PRESTO-Tango GPCRome screen; conditions: Compound concentration 1.0 uM
Chain of Urotensin-2 receptor (Homo sapiens) (Q9UKP6 whole entry): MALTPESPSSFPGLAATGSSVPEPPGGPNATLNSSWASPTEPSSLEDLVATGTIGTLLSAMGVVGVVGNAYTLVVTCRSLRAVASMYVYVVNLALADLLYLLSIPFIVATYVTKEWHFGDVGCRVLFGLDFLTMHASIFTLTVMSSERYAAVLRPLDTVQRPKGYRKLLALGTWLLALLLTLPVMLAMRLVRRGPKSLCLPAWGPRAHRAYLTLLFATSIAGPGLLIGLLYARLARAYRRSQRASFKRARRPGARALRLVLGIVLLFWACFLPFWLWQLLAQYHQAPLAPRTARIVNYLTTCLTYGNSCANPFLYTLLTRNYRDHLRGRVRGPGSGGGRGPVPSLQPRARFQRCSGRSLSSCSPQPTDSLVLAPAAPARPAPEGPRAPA

Chain of Follicle-stimulating hormone receptor (Homo sapiens) (P23945 whole entry): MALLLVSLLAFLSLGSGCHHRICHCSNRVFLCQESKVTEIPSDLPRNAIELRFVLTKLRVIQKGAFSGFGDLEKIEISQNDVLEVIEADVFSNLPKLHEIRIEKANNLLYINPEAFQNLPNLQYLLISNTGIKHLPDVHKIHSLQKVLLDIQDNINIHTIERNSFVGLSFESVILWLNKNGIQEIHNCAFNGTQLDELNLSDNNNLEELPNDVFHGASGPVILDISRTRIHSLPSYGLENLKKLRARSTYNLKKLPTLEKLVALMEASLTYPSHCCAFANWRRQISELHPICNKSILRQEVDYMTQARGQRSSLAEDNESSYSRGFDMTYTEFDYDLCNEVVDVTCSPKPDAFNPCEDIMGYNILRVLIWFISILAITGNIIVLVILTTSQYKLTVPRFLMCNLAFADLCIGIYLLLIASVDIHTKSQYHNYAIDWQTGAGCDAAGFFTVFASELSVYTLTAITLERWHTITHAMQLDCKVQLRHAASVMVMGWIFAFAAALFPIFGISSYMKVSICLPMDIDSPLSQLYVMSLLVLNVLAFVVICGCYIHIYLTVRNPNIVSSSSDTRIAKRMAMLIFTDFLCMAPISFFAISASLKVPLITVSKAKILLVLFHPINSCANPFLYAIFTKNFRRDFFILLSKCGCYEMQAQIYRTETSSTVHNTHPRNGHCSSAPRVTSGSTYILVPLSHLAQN
Chain of G-protein coupled receptor family C group 6 member A (Homo sapiens) (Q5T6X5 whole entry): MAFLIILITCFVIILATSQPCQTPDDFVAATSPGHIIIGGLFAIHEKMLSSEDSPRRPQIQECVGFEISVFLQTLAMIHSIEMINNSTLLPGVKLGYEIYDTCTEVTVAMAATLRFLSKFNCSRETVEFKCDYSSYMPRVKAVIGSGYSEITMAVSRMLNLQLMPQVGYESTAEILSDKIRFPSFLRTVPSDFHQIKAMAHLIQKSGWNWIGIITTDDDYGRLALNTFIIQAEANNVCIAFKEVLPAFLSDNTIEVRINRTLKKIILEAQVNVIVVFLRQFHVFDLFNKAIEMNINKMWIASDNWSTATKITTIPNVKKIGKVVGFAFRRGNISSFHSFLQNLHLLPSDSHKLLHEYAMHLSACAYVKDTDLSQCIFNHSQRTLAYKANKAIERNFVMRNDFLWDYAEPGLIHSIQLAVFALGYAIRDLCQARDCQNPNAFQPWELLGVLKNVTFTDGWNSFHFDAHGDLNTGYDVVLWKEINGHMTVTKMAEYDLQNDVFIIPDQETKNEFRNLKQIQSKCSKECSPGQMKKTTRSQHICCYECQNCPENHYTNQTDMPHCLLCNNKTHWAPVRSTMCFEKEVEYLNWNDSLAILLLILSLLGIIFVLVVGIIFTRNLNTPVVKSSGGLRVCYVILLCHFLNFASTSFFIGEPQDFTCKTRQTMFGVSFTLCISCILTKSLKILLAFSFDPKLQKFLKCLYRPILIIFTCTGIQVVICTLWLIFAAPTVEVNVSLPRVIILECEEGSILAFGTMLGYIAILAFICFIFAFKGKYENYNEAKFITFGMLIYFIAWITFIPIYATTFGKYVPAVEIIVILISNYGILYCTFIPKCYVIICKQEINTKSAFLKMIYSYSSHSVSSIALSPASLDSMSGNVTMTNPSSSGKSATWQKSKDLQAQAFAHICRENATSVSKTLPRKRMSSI
Chain of Calcitonin receptor (Homo sapiens) (P30988 whole entry): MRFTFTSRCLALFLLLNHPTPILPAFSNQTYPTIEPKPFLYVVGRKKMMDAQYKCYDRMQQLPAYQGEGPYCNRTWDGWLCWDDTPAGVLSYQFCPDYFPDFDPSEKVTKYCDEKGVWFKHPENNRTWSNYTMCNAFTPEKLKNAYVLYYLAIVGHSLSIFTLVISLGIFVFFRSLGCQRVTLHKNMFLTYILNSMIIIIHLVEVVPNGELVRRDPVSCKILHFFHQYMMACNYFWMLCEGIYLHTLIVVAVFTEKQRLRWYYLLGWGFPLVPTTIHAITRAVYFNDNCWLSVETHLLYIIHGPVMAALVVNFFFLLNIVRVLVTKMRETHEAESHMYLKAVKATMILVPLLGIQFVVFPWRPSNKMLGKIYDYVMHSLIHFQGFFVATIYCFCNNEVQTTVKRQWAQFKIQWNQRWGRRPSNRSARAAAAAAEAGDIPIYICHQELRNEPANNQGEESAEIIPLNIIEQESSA
Chain of G-protein coupled receptor 183 (Homo sapiens) (P32249 whole entry): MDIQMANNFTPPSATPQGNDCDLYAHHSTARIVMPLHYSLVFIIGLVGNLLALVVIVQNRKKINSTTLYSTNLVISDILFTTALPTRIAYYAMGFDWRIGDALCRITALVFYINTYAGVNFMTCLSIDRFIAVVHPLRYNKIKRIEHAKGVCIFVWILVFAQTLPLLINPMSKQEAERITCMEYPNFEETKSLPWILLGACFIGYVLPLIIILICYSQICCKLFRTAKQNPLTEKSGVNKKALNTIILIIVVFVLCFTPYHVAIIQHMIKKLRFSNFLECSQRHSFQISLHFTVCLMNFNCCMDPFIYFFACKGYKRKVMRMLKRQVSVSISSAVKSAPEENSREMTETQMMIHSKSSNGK
Chain of G-protein coupled receptor 61 (Homo sapiens) (Q9BZJ8 whole entry): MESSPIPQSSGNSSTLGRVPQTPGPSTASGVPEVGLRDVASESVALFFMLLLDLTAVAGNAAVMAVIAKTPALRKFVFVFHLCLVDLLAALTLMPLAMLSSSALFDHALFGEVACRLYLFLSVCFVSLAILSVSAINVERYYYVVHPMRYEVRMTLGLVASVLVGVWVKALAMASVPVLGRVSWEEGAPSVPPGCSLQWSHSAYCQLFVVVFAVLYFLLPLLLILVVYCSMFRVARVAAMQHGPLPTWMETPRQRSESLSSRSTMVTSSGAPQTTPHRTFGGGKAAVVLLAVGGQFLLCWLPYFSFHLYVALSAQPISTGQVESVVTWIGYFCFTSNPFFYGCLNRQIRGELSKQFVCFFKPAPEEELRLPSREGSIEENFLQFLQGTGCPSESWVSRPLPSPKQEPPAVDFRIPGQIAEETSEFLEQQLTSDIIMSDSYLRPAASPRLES
Chain of Muscarinic acetylcholine receptor M1 (Homo sapiens) (P11229 whole entry): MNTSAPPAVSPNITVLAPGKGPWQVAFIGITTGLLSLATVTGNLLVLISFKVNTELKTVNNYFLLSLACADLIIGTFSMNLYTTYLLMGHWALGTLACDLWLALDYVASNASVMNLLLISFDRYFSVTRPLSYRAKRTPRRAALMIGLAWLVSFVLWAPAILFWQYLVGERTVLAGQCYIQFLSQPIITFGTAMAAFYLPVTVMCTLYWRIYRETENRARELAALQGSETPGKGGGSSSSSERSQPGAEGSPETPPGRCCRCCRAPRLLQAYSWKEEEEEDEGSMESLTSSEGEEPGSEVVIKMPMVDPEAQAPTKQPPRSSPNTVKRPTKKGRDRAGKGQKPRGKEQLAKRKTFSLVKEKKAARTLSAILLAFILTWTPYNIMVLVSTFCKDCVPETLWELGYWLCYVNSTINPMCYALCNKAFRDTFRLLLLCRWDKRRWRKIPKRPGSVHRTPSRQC
Chain of Pituitary adenylate cyclase-activating polypeptide type I receptor (Homo sapiens) (P41586 21-468 limits assumed): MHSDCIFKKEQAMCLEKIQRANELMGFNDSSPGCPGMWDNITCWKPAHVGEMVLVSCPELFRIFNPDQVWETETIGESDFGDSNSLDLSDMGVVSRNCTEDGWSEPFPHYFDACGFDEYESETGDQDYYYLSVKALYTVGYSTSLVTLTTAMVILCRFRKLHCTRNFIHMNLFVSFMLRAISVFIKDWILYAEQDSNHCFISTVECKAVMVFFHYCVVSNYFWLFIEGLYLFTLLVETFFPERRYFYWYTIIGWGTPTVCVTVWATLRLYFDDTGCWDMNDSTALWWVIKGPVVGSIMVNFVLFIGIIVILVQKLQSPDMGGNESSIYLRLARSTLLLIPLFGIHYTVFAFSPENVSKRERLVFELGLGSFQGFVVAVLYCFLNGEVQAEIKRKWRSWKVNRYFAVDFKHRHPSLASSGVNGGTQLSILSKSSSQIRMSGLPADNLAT
Chain of Somatostatin receptor type 5 (Homo sapiens) (P35346 whole entry): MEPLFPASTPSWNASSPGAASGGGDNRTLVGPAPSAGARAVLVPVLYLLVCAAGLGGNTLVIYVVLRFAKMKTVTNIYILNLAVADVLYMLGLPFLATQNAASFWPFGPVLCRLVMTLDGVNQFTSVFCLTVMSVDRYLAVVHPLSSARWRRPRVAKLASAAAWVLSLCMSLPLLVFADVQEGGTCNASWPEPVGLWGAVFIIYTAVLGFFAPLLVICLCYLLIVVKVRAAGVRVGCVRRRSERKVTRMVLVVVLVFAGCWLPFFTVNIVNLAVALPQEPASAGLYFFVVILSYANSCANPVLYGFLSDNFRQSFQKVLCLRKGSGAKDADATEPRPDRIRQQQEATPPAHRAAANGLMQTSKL
Chain of Opsin-3 (Homo sapiens) (Q9H1Y3 whole entry): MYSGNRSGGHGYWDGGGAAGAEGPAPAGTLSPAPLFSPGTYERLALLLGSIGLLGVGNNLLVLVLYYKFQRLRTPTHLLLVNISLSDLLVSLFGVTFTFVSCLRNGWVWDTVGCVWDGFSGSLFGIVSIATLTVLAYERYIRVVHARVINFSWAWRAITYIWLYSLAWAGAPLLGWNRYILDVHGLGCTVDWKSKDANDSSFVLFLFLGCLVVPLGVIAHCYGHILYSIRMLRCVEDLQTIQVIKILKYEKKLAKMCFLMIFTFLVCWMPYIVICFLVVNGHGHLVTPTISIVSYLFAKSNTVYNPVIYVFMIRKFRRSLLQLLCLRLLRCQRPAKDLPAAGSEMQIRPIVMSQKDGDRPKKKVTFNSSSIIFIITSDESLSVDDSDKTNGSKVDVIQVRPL

EC50 [1]: > 50 µM (not active)
RLU [2]: 1630
RLU [3]: -2730
RLU [4]: -688
RLU [5]: 2870
RLU [7]: -5810
RLU [8]: 2850
RLU [9]: -3270
RLU [10]: -2940
RLU [11]: -5260
RLU [12]: 5080
RLU [13]: 410
RLU [14]: -1160
RLU [15]: -865
RLU [16]: -663
RLU [17]: 3090
RLU [18]: 1710
RLU [19]: 6270
RLU [20]: -3250
RLU [21]: -6100
RLU [22]: -1210
RLU [23]: 435000
RLU [24]: 1400
RLU [25]: 2050
RLU [26]: -9110
RLU (Opsin-3 (Homo sapiens)): 338
RLU [27]: 156
RLU [28]: 2760
RLU [29]: -7240
RLU [30]: -408
RLU [31]: -471
RLU [32]: -946
RLU [33]: -4860
RLU [34]: -160
Compound: CCCCC(=O)N1CC2(C1)CN(c1ccccc1-c1nnn[nH]1)C2
RLU [6]: 4830
